In patent EP4715056A1, “BIO-BASED TRANS-ACONITATE, PREPARATION METHOD THEREFOR AND USE THEREOF” (Qingdao Institute of Bioenergy and Bioprocess Technology, …, priority 2023, dated 2024):
Read-outs that look alike come from different tables or passages of the source.

Assays:
[1] = Plasticizer migration rate to NR (HG/T 4458-2012); type: physicochemical; conditions: PVC composite with 30 parts plasticizer; 50°C for 48 h
Description: (§1) The above plasticizer is the mixed aconitates prepared in Example 37, and composite materials are prepared according to the above weight ratio and preparation method respectively. At the same time, dioctyl phthalate, tributyl citrate, tributyl aconitate and triisooctyl aconitate are respectively selected as plasticizers to prepare composite materials according to the above weight ratio and preparation method. The test method is the same as that in Test 2 except for the following: • 1. Volatility loss rate: tests were performed in accordance with HG/T 4458-2012 Plastics - Determination of Plasticizer Loss by Activated Carbon Method at a test temperature of 70°C for 24 h. • 2. Water extraction rate: tests were performed in accordance with the standard ISO 175-2011 Test Method for Determination of Immersion Effects of Plastics in Liquid Chemicals at room temperature for 72 h, with deionized water as the extraction solvent. • 3. Ethanol extraction rate: tests were performed in accordance with the standard ISO 175-2011 Test Method for Determination of Immersion Effects of Plastics in Liquid Chemicals at room temperature for 72 h, with ethanol as the extraction solvent. • 4. Petroleum ether extraction rate: tests were performed in accordance with the standard ISO 175-2011 Test Method for Determination of Immersion Effects of Plastics in Liquid Chemicals at room temperature for 72 h, with petroleum ether as the extraction solvent. • 5. Migration rate: tests were performed in accordance with HG/T 4458-2012 Determination of Plasticizer Migration in Plastics at a test temperature of 50°C for 48 h. The materials of absorbent sheets are polyethylene (PE) without additives and standard natural rubber (NR).

[2] = Tensile properties (GB/T 1040-2006): tensile modulus at 100%, elongation at break, elastic modulus; type: physicochemical; conditions: PVC composite with 30 parts plasticizer, Table 9
[3] = Water extraction rate (ISO 175-2011); type: physicochemical; conditions: PVC composite with 30 parts plasticizer; room temperature, 72 h, deionized water
Description: as §1

[4] = Glass transition temperature (dynamic mechanical analyzer); type: physicochemical; conditions: PVC composite with 30 parts plasticizer, Table 10
[5] = Petroleum ether extraction rate (ISO 175-2011); type: physicochemical; conditions: PVC composite with 30 parts plasticizer, room temperature, 72 h
Description: as §1

[6] = Volatility loss rate (activated carbon method, HG/T 4458-2012); type: physicochemical; conditions: PVC composite with 30 parts plasticizer; 70°C for 24 h
Description: as §1

[7] = Plasticizer migration rate to PE (HG/T 4458-2012); type: physicochemical; conditions: PVC composite with 30 parts plasticizer; 50°C for 48 h
Description: as §1

[8] = Ethanol extraction rate (ISO 175-2011); type: physicochemical; conditions: PVC composite with 30 parts plasticizer, room temperature, 72 h
Description: as §1

[9] = Hardness (Shore hardness tester, GB/T 531-2008); type: physicochemical; conditions: 2 parts oxidized polyethylene wax, 5 parts octyltin maleate
Description: The aconitates and tributyl citrate prepared in the above examples and comparative examples were added as plasticizers to PVC resin to obtain PVC plastics. […] The above raw materials were mixed and prepared using the same mixing process to obtain finished PVC products. The performance tests were performed on different plasticizers and the obtained PVC finished products in the above examples and comparative examples. […] Three points were selected for each group of samples, each point was tested once, and a median value was taken. • 2. […] Compatibility: tests were performed using a water value method. Since water molecules are polar, the compatibility between the plasticizer and water can characterize the compatibility between the plasticizer and polar materials (PVC, PLA, and nitrile rubber). When a certain plasticizer has good compatibility with water, it has good compatibility with PVC, and vice versa. In the experiment, 2.5 g of plasticizer and 25 g of acetone were added to a beaker, titrated with a burette filled with deionized water, and agitated while titrating until turbidity appears, and the volume of deionized water consumed was recorded. • 4. Glass transition temperature (Tg): the glass transition temperature was tested using a dynamic mechanical analyzer. Test conditions: nitrogen was taken as the carrier gas, at a test temperature range of -40 to 80°C, a heating rate of 3°C/min, and a frequency of 1 Hz.

[10] = Compatibility (water value method); type: physicochemical
Description: (§2) The aconitates and tributyl citrate prepared in the above examples and comparative examples were added as plasticizers to PVC resin to obtain PVC plastics. The PVC plastics include 100 parts of PVC resin, 35 parts of plasticizer, 2 parts of oxidized polyethylene wax, and 5 parts of octyltin maleate. The above raw materials were mixed and prepared using the same mixing process to obtain finished PVC products. The performance tests were performed on different plasticizers and the obtained PVC finished products in the above examples and comparative examples. […] Three points were selected for each group of samples, each point was tested once, and a median value was taken. • 2. […] Compatibility: tests were performed using a water value method. Since water molecules are polar, the compatibility between the plasticizer and water can characterize the compatibility between the plasticizer and polar materials (PVC, PLA, and nitrile rubber). When a certain plasticizer has good compatibility with water, it has good compatibility with PVC, and vice versa. In the experiment, 2.5 g of plasticizer and 25 g of acetone were added to a beaker, titrated with a burette filled with deionized water, and agitated while titrating until turbidity appears, and the volume of deionized water consumed was recorded. • 4. Glass transition temperature (Tg): the glass transition temperature was tested using a dynamic mechanical analyzer. Test conditions: nitrogen was taken as the carrier gas, at a test temperature range of -40 to 80°C, a heating rate of 3°C/min, and a frequency of 1 Hz.

[11] = Glass transition temperature (dynamic mechanical analyzer); type: physicochemical; conditions: PVC plastic with 35 parts plasticizer; -40 to 80°C, 3°C/min, 1 Hz
Description: as §2

[12] = Residual amounts of fat-soluble and water-soluble pigments (HPLC); type: physicochemical; conditions: aconitate/citrate products, Table 4
Description: 7. Residual amounts of fat-soluble pigments and water-soluble pigments: • a high-performance liquid chromatograph (HPLC) was used, and the instrument sensitivity and stability of the detector should comply with the provisions of GB/T 16631-2008. Chromatographic column: C18 column; injector: 10 µL micro-syringe; solvent: acetonitrile (HPLC grade); acquisition time: 15 min; mobile phase: 80% acetonitrile (HPLC grade) and 20% deionized water; injection volume: 1 µL; wavelength: 230 nm.
Test: the instrument was adjusted according to the above provisions. After the baseline was stable, 0.2 µL of the sample was injected using a micro-syringe, and the integrator or chromatographic workstation was started at the same time. A pigment concentration-integral area standard curve was established by testing the integral areas of pigments with different concentrations. When the pigment content was measured, the corresponding pigment integral area was automatically given by the instrument, and the pigment concentration was obtained by comparing with the standard curve. The ratio of the pigment concentration to the sample concentration is the pigment content.

[13] = Acid value (KOH titration); type: physicochemical; conditions: aconitate/citrate products, Table 4
Description: The aconitates and citrates prepared in the above examples and comparative examples were tested for acid value, purity, chromaticity, yield, triester conversion rate, and water content. […] The mixture was neutralized with 0.02 mol·L^-1 potassium hydroxide aqueous solution until a faint pink color appears, and the consumed volume Vo was recorded. 1 g of the sample (accurate to 0.01 g) was weighed using a ground-neck conical flask, then one portion of the above neutralized solution was added. After the sample was completely dissolved, the sample was titrated with 0.02 mol·L^-1 potassium hydroxide-ethanol standard titration solution (the titration should be completed within 30 seconds) until a faint pink color appeared and persisted for 5 seconds without fading, which was considered as an end point. The consumed volume V was recorded. […] Chromatographic column: C18 column; injector: 10 µL micro-syringe; solvent: acetonitrile (HPLC grade); acquisition time: 15 min; mobile phase: 80% acetonitrile (HPLC grade) and 20% deionized water; injection volume: 1 µL; wavelength: 230 nm.

[14] = Tensile properties (GB/T 1040-2006): tensile modulus at 100%, elongation at break, elastic modulus; type: physicochemical; conditions: PVC plastic with 35 parts plasticizer; 50 mm/min, 25°C
Description: as §2

[15] = Chromaticity (platinum-cobalt colorimetry); type: physicochemical; conditions: aconitate/citrate products, Table 4; colour comparison at 25°C
Description: 3. Chromaticity: preparation of 500# platinum-cobalt colorimetric standard stock solution: 1.2450 g of potassium chloroplatinate and 1.0000 g of cobalt chloride were weighed, with an accuracy of 0.0002 g, the mixture was dissolved in 100 mL of hydrochloric acid, and then diluted to 1000 mL with distilled water. This solution is just the 500# colorimetric standard comparison solution.
Preparation of colorimetric standards below 500#: different amounts of the 500# stock solution was prepared, and diluted with distilled water to the volume of a colorimetric tube to prepare colorimetric standard solutions of any number. The calculation formula is as follows: V = (N×V1)/500 [formula]
In the formula, V is the volume of the 500# standard stock solution taken to prepare the N# colorimetric standard solution, in mL; V1 is the volume of the colorimetric tube used, in mL; and N is the number of the colorimetric standard solution to be prepared.
Color comparison determination was performed at 25°C.

[16] = Water content (Karl Fischer moisture meter); type: physicochemical; conditions: aconitate/citrate products, Table 4
Text: 6. Water content: a Karl Fischer moisture meter is used to test the water content (retained to two decimal places).

[17] = tested on: Aspergillus terreus engineered strains; type: cell-based; conditions: for effect on the yield of trans-Aconitic acid: additionally added at certain doses, shake flask; for increase of the yield of trans-Aconitic acid: 96 hours of shake flask fermentation
Description: Additional supplementation experiments were performed on differential amino acids and vitamins between high-yield and low-yield corn steep liquor powders. Based on the high-yield corn steep liquor powder medium, fermentation verification was performed by adding differential amino acid components and vitamin components separately. Each group was set up with three parallel replicates. After 96 hours of shake flask fermentation, the supernatant of the fermentation broth was collected for quantitative analysis using HPLC detection.

[18] = composite: 100 parts PVC resin (K value 60, polydispersity index 4), 30 parts plasticizer
[19] = water value of the plasticizer, Table 9
[20] = PVC plastic: 100 parts PVC resin, 35 parts plasticizer
[21] = 2.5 g plasticizer and 25 g acetone titrated with deionized water until turbidity, Table 5

## CCCCCCCCOC(=O)c1ccccc1C(=O)OCCCCCCCC [Dioctyl Phthalate, dioctyl phthalate]
[1]
  Migration rate to NR: 0.81%
[2]
  Elastic modulus: 487.3 MPa
  Elongation at break: 134.9%
  Tensile modulus at 100%: 15.1 MPa
[3]
  Water extraction rate: 0.32%
[4]
  Tg: 48.5 °C
[5]
  Petroleum ether extraction rate: 6.12%
[6]
  Volatility loss rate: 0.96%
[7]
  Migration rate to PE: 0.83%
[8]
  Ethanol extraction rate: 5.13%
[9]; [18]
  Hardness/Shore D: 78 Shore D
[10]; [19]
  Compatibility: 7.1 mL

## CCCCOC(=O)C=C(CC(=O)OCCCC)C(=O)OCCCC [Example 34, tributyl aconitate]
[11]
  Tg: 27.7 °C
[12]
  Residual amounts of fat-soluble pigments: 428 ppm
  Residual amounts of water-soluble pigments: 864 ppm
[13]
  Acid value: 0.05 KOH/g
[14]
  Elastic modulus: 77.9 MPa
  Elongation at break: 258.1%
  Tensile modulus at 100%: 14.7 MPa
[15]
  Chromaticity: 50 Pt-Co
[16]
  Water content: 0.03%
[9]; [20]
  Hardness/Shore D: 41 Shore D
[10]; [21]
  Compatibility: 16.1 mL

## CCCCOC(=O)C=C(CC(=O)OCCCC)C(=O)OCCCC [Example 35, tributyl aconitate]
[11]
  Tg: 38.4 °C
[12]
  Residual amounts of fat-soluble pigments: 3475 ppm
  Residual amounts of water-soluble pigments: 5348 ppm
[13]
  Acid value: 0.05 KOH/g
[14]
  Elastic modulus: 348.6 MPa
  Elongation at break: 173.4%
  Tensile modulus at 100%: 19.8 MPa
[15]
  Chromaticity: 300 Pt-Co
[16]
  Water content: 0.03%
[9]; [20]
  Hardness/Shore D: 55 Shore D
[10]; [21]
  Compatibility: 8.1 mL

## CCCCOC(=O)C=C(CC(=O)OCCCC)C(=O)OCCCC [Example 36, tributyl aconitate]
[11]
  Tg: 29.7 °C
[12]
  Residual amounts of fat-soluble pigments: 836 ppm
  Residual amounts of water-soluble pigments: 1368 ppm
[13]
  Acid value: 0.05 KOH/g
[14]
  Elastic modulus: 137.4 MPa
  Elongation at break: 243.4%
  Tensile modulus at 100%: 15.9 MPa
[15]
  Chromaticity: 60 Pt-Co
[16]
  Water content: 0.04%
[9]; [20]
  Hardness/Shore D: 43 Shore D
[10]; [21]
  Compatibility: 13.4 mL

## NC(=O)CC[C@H](N)C(=O)O [L-glutamine]
[17]
  effect on the yield of trans-Aconitic acid: varying degrees of decrease

## NCC(=O)O [L-glycine]
[17]
  effect on the yield of trans-Aconitic acid: varying degrees of decrease

## CC[C@H](C)[C@H](N)C(=O)O [L-isoleucine]
[17]
  effect on the yield of trans-Aconitic acid: varying degrees of decrease

## CC(C)C[C@H](N)C(=O)O [L-leucine]
[17]; addition of 0.125 g/L
  increase of the yield of trans-Aconitic acid: 42%

## NCCCC[C@H](N)C(=O)O [L-lysine]
[17]
  effect on the yield of trans-Aconitic acid: varying degrees of decrease

## O=C(O)[C@@H]1CCCN1 [L-proline]
[17]
  effect on the yield of trans-Aconitic acid: varying degrees of decrease

## CCCCOC(=O)C=C(CC(=O)OCCCC)C(=O)OCCCC [Tributyl aconitate, tributyl aconitate]
[1]
  Migration rate to NR: 1.31%
[2]
  Elastic modulus: 130.5 MPa
  Elongation at break: 257.4%
  Tensile modulus at 100%: 8.2 MPa
[3]
  Water extraction rate: 0.36%
[4]
  Tg: 28.1 °C
[5]
  Petroleum ether extraction rate: 6.03%
[6]
  Volatility loss rate: 1.08%
[7]
  Migration rate to PE: 1.26%
[8]
  Ethanol extraction rate: 3.71%
[9]; [18]
  Hardness/Shore D: 45 Shore D
[10]; [19]
  Compatibility: 16.7 mL

## O=C(O)CCCC[C@@H]1SC[C@@H]2NC(=O)N[C@@H]21 [biotin-vitamin B7, biotin]
[17]; addition of 0.11 g/L
  increase of the yield of trans-Aconitic acid: 17.5%

## CC(O)C(=O)O (centres unmarked) [lactic acid]
[17]
  effect on the yield of trans-Aconitic acid: varying degrees of decrease
